Experimental data reported in patent US12036212B2, “Enhancement of tumor response to chemotherapy by activation of the asmase/ceramide pathway through timed administration of a short-acting anti-angiogenic agent” (Memorial Sloan-Kettering Cancer Center, priority 2014, dated 2024).

How the values were obtained:
HCT116 tumors = assay: Tumor response in vivo, HCT116 tumors; set-up: species or system mice
Method: (§1) Human HCT-116 colon cancer cells and MCA/129 murine sarcoma cells were maintained in DMEM with 10% fetal bovine serum, with 100 u/ml penicillin and 100 μg/ml streptomycin. Cells were grown as monolayers in 75 cm^2 culture flasks at 37° C. in 10% CO2 humidified incubators. Cells were trypsinized, washed in PBS and diluted in Matrigel/PBS solution (40:60 v/v) for HCT-116 xenografts or in PBS for MCA/129 syngeneic tumor grafts. Cells (3×10^6 for HCT-116 or 1×10^6 for MCA129) were injected subcutaneously into the flanks of mice (Garcia-Barros et al. Science 300, 1155-1159, 2003).
SCID^asmase+/+ and SCID^asmase−/− mice harboring HCT-116 tumors (50-100 mm^3) were treated with three i.p. injections of 35-50 mg/kg etoposide (Novaplus®), or 15-25 mg/kg paclitaxel (Hospira), or 1-6 mg/kg cisplatin (APP Pharmaceuticals, LLC) in a bi-weekly schedule with or without i.v. DC101 (1600 μg/25 gm mouse), or control IgG. For sarcoma studies, Sv129/Bl6 mice harboring MCA/129 tumors (100-150 mm^3) were treated with three i.p. injections of 240 mg/kg gemcitabine on a bi-weekly schedule with or without i.v. DC-101. Tumor volume, based on caliper measurements (length and width in millimeters), was calculated daily using the following formula: 0.5×length×width^2.
Tumor response to chemotherapy in the colorectal HCT116 xenograft model was evaluated. SCID^asmase+/+ or SCID^asmase−/− mice harboring HCT116 tumors (50-70 mm^3) were treated with paclitaxel (15/20/25 mg/kg i.p.) three times biweekly. […] To test that the ASMase requirement is mediated by the generation of ceramide, SCID^asmase+/+ mice harboring tumors as in FIG. 5A were treated with etoposide (35/35/50 mg/kg i.p.) biweekly in the presence of anti-ceramide or isotype control antibody.
(§2) To further test the ability of cisplatin to affect endothelial cell apoptosis and tumor response in vivo, effects of cisplatin on tumor growth were evaluated.
Thus, to further explore the notion of endothelial ASMase signaling requirement in response to chemotherapy, DC101 was used in combination with paclitaxel treatment.

human cells = details: cited from earlier work
CRM = CRM detection by confocal microscopy in BAEC; format: cell-based, bovine; details: paclitaxel 100 nM
Method: BAEC were grown on CC2-treated chamber slides (Nalge Nunc International Corp., Naperville, USA) and then exposed to etoposide or paclitaxel with or without pre-incubation with Nystatin (30 μg/ml, Sigma) for 30 min. BAEC were then washed in cold PBS, fixed for 15 min in fresh 2% paraformaldehyde, washed 2× with cold PBS, and blocked with 5% FBS in PBS for 20 min at room temperature. Cells were stained with anti-ceramide MID 15B4 IgM (Alexis Corporation) at 1:50 dilution for 1 hour at room temperature, washed 3× in PBS, and thereafter with Texas Red-conjugated secondary antibody (Jackson Immunoresearch Laboratories, Inc.) at 1:500 dilution for 1 hour at room temperature. Nonspecific fluorescence was excluded using isotype control IgM (BD Biosciences). Cells were washed 3×, stained with DAPI and mounted in 0.1% paraphenylenediamine. Fluorescence was detected using Leica TCS SP2 AOBS 1- and 2-photon laser scanning confocal (DMRXA2 upright stand) microscope coupled with MetaMorph 7.5 (Molecular Devices). Number of CRMs in membranes of endothelial cells was analyzed using MetaMorph 7.5 software that allowed outlining of regions containing CRMs based on two criteria: 1) CRM size (≥500 nm); 2) Intensity of ceramide staining. Mice: asmase^+/+ and asmase^−/− mice, maintained in a SCID background, were propagated using heterozygous breeding pairs and genotyped as previously described (Santana et al. Cell, 86, 189-199, 1996; Grassme et al. Nat Med 9, 322-330 (2003). 6-12 week-old C57BL6/SV129 male mice, purchased from The Jackson Laboratory (Bar Harbor).
To test the effect of chemotherapy on ASMase signaling and ceramide production, BAEC were treated with paclitaxel (100 nM) and ASMase activity was determined by radioenzymatic assay (Rotolo et al, infra) using [^14C-methylcholine] sphingomyelin (Amersham) as substrate (FIG. 1A). Induction of ASMase activity was observed within 5 minutes after treatment, and the activation continued for 30 minutes. Ceramide generation was monitored using the diacylglycerol kinase assay (Stancevic et al. PLoS ONE 8, e69025, 2013). […]

[1] = system: HCT116 human colorectal cancer xenografts; assay: Endothelial apoptosis in vivo (TUNEL/MECA-32) in HCT116 xenografts; set-up: species or system mice; details: single dose paclitaxel 25 mg/kg, 4 hours
Method: as §1
To evaluate acute endothelial apoptosis, tumors were grown in mice and treated with drugs as above. After the first treatment, tumors were harvested at specified times, placed into formalin overnight and paraffin-embedded the next day. Paraffin-embedded sections (5 μm) were co-stained for apoptotic endothelium using TUNEL and the endothelial-specific monoclonal antibody MECA-32 (Developmental Studies Hybridoma Bank, developed under the auspices of the NICHD and maintained by The University of Iowa, IA). […]
as §2

Row | Structure (SMILES) | Tumor growth delay (HCT116 tumors; cisplatin 3×6 mg/kg) | ASMase (human cells) | Apoptosis (human cells) | CRM formation peak time (CRM) | CRM formation remained elevated for (CRM) | Tumor endothelial apoptosis ([1]; SCID asmase+/+) | Tumor endothelial apoptosis ([1]; SCID asmase−/−) | Tumor response, agent alone (HCT116 tumors; SCID asmase+/+, 3×15 mg/kg paclitaxel or 1600 μg DC101 alone) | Complete tumor response after (HCT116 tumors; SCID asmase+/+, paclitaxel 15/20/25 mg/kg i.p. three times biweekly) | Tumor response (HCT116 tumors; SCID asmase−/−, paclitaxel 15/20/25 mg/kg i.p. three times biweekly)
1 | N.N.[Cl][Pt][Cl] [cisplatin] | did not induce significant HCT116 tumor growth delay | increase ASMase | induce apoptosis | – | – | – | – | – | – | –
2 | CC(=O)O[C@H]1C(=O)[C@@]2(C)[C@H]([C@H](OC(=O)c3ccccc3)[C@]3(O)C[C@H](OC(=O)[C@H](O)[C@@H](NC(=O)c4ccccc4)c4ccccc4)C(C)=C1C3(C)C)[C@]1(OC(C)=O)CO[C@@H]1C[C@@H]2O [paclitaxel] | – | – | – | 5 min | 30 min | robust endothelial apoptosis | resistant to chemotherapy-induced endothelial cell apoptosis | slightly affected | 10 ± 1 days | no significant tumor response
